Experimental data reported in PubChem BioAssay AID1259407 (Chemical Carcinogenesis Research Information System (CCRIS), 2018).
Activity calls are given as the source filed them. The rule behind the calls is not given here.

System: CCRIS mutagenicity, Ames/micronucleus/aberration tests
Assay: CCRIS mutagenicity studies

Measured: mutagenic call

O=S(=O)(O)c1ccc(N=Nc2c(O)ccc3cc(S(=O)(=O)O)ccc23)cc1
inactive: End Point: IN VITRO CHROMOSOMAL ABERRATIONS, Test System: CHO CELLS, Metabolic Activation: NONE inactive; negative | End Point: IN VITRO CHROMOSOMAL ABERRATIONS, Test System: CHO CELLS, Metabolic Activation: RAT, LIVER, S-9, AROCLOR 1254 inactive; negative | Test System: AMES SALMONELLA TYPHIMURIUM, Strain/Indicator: TA97, Metabolic Activation: HAMSTER, LIVER, S-9, AROCLOR 1254 (10%), Method: PREINCUBATION inactive; negative | Test System: AMES SALMONELLA TYPHIMURIUM, Strain/Indicator: TA97, Metabolic Activation: HAMSTER, LIVER, S-9, AROCLOR 1254 (30%), Method: PREINCUBATION inactive; negative | Test System: AMES SALMONELLA TYPHIMURIUM, Strain/Indicator: TA97, Metabolic Activation: NONE, Method: PREINCUBATION inactive; negative | Test System: AMES SALMONELLA TYPHIMURIUM, Strain/Indicator: TA97, Metabolic Activation: RAT, LIVER, S-9, AROCLOR 1254 (10%), Method: PREINCUBATION inactive; negative | Test System: AMES SALMONELLA TYPHIMURIUM, Strain/Indicator: TA97, Metabolic Activation: RAT, LIVER, S-9, AROCLOR 1254 (30%), Method: PREINCUBATION inactive; negative | Test System: AMES SALMONELLA TYPHIMURIUM, Strain/Indicator: TA98, Metabolic Activation: HAMSTER, LIVER, S-9, AROCLOR 1254 (10%), Method: PREINCUBATION inactive; negative | Test System: AMES SALMONELLA TYPHIMURIUM, Strain/Indicator: TA98, Metabolic Activation: HAMSTER, LIVER, S-9, AROCLOR 1254 (30%), Method: PREINCUBATION inactive; negative | Test System: AMES SALMONELLA TYPHIMURIUM, Strain/Indicator: TA98, Metabolic Activation: NONE, Method: PREINCUBATION inactive; negative | Test System: AMES SALMONELLA TYPHIMURIUM, Strain/Indicator: TA98, Metabolic Activation: NONE, Method: STANDARD PLATE inactive; negative | Test System: AMES SALMONELLA TYPHIMURIUM, Strain/Indicator: TA98, Metabolic Activation: RAT LIVER S-9, AROCLOR 1254, Method: STANDARD PLATE inactive; negative | Test System: AMES SALMONELLA TYPHIMURIUM, Strain/Indicator: TA98, Metabolic Activation: RAT, LIVER, S-9, AROCLOR 1254 (10%), Method: PREINCUBATION inactive; negative | Test System: AMES SALMONELLA TYPHIMURIUM, Strain/Indicator: TA98, Metabolic Activation: RAT, LIVER, S-9, AROCLOR 1254 (30%), Method: PREINCUBATION inactive; negative | Test System: AMES SALMONELLA TYPHIMURIUM, Strain/Indicator: TA98, Metabolic Activation: RAT, LIVER, S-9, PHENOBARBITAL, Method: PREINCUBATION inactive; negative | Test System: AMES SALMONELLA TYPHIMURIUM, Strain/Indicator: TA100, Metabolic Activation: HAMSTER, LIVER, S-9, AROCLOR 1254 (10%), Method: PREINCUBATION inactive; negative | Test System: AMES SALMONELLA TYPHIMURIUM, Strain/Indicator: TA100, Metabolic Activation: HAMSTER, LIVER, S-9, AROCLOR 1254 (30%), Method: PREINCUBATION inactive; negative | Test System: AMES SALMONELLA TYPHIMURIUM, Strain/Indicator: TA100, Metabolic Activation: NONE, Method: PREINCUBATION inactive; negative | Test System: AMES SALMONELLA TYPHIMURIUM, Strain/Indicator: TA100, Metabolic Activation: NONE, Method: STANDARD PLATE inactive; negative | Test System: AMES SALMONELLA TYPHIMURIUM, Strain/Indicator: TA100, Metabolic Activation: RAT LIVER S-9, AROCLOR 1254, Method: STANDARD PLATE inactive; negative | Test System: AMES SALMONELLA TYPHIMURIUM, Strain/Indicator: TA100, Metabolic Activation: RAT, LIVER, S-9, AROCLOR 1254 (10%), Method: PREINCUBATION inactive; negative | Test System: AMES SALMONELLA TYPHIMURIUM, Strain/Indicator: TA100, Metabolic Activation: RAT, LIVER, S-9, AROCLOR 1254 (30%), Method: PREINCUBATION inactive; negative | Test System: AMES SALMONELLA TYPHIMURIUM, Strain/Indicator: TA100, Metabolic Activation: RAT, LIVER, S-9, PHENOBARBITAL, Method: PREINCUBATION inactive; negative | Test System: AMES SALMONELLA TYPHIMURIUM, Strain/Indicator: TA1535, Metabolic Activation: HAMSTER, LIVER, S-9, AROCLOR 1254 (10%), Method: PREINCUBATION inactive; negative | Test System: AMES SALMONELLA TYPHIMURIUM, Strain/Indicator: TA1535, Metabolic Activation: HAMSTER, LIVER, S-9, AROCLOR 1254 (30%), Method: PREINCUBATION inactive; negative | Test System: AMES SALMONELLA TYPHIMURIUM, Strain/Indicator: TA1535, Metabolic Activation: NONE, Method: PREINCUBATION inactive; negative | Test System: AMES SALMONELLA TYPHIMURIUM, Strain/Indicator: TA1535, Metabolic Activation: RAT, LIVER, S-9, AROCLOR 1254 (10%), Method: PREINCUBATION inactive; negative | Test System: AMES SALMONELLA TYPHIMURIUM, Strain/Indicator: TA1535, Metabolic Activation: RAT, LIVER, S-9, AROCLOR 1254 (30%), Method: PREINCUBATION inactive; negative
